# In patent US11406649B2, “Treatment of upper aerodigestive tract disorders and cough” (IVIEW THERAPEUTICS, INC., priority 2018, dated 2022):
# Entries after “also recorded” stand apart in the source; their conditions may differ.
# What was measured:
# Oral Cavity and Pharynx [1] = experiment: Sensory qualities of compounds in syrup applied to base of tongue of volunteers; type: in vivo, human; details: concentration increased to 15 mg/mL, 0.8 mL per dose
# cloned hTRPM8 channel = cloned hTRPM8 channel (Homo sapiens (Human), UniProt Q7Z2W7); experiment: TRPM8 agonist activity, Fluo-8 calcium FLIPR assay (ChanTest); type: cell-based; details: L-menthol = 1.0
# Sequence of cloned hTRPM8 channel (Q7Z2W7 whole entry): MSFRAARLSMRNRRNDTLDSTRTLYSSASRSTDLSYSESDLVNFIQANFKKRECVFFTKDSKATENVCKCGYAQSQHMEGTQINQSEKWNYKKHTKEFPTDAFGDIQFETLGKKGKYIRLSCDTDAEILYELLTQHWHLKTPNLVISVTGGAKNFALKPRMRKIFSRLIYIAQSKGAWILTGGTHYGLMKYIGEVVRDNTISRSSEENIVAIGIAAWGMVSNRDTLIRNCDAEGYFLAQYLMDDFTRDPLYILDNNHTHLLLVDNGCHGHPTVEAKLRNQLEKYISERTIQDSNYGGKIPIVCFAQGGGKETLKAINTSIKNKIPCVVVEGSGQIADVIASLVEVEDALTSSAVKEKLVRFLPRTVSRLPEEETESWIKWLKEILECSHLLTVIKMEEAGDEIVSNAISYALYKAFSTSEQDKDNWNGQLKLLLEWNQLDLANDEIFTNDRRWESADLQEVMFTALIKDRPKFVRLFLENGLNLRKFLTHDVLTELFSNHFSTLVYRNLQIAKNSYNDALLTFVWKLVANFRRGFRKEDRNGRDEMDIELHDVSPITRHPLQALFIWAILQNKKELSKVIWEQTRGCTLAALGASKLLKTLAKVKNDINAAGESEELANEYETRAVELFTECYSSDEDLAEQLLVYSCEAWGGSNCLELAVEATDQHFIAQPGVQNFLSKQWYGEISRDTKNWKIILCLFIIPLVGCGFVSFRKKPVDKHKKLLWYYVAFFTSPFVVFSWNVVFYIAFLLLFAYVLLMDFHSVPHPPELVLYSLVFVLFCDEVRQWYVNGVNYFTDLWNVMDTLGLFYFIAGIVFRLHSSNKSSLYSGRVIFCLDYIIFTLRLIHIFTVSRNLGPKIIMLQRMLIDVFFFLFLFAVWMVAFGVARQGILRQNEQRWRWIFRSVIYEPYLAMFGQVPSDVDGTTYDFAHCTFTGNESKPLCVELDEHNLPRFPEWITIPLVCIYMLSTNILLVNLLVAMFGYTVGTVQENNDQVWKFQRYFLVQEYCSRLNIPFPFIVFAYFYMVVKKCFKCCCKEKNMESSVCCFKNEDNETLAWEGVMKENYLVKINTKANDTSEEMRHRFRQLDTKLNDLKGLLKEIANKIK
# Method: In the first set of data, the potency and in vitro effects of test compounds were evaluated on cloned hTRPM8 channel (encoded by the human TRPM8 gene, expressed in CHO cells) using a Fluo-8 calcium kit and a Fluorescence Imaging Plate Reader (FLIPR^TETRA™) instrument. […] Test solutions were in a HEPES-buffered saline, in 384-well plates, and placed into the FLIPR instrument (Molecular Devices Corporation, Union City, Calif., USA). […] The test cells were Chinese Hamster Ovary (CHO) cells stably transfected with human TRPM8 cDNAs. Concentration-response data were analyzed via FLIPR Control software) and fitted to a Hill equation for the EC50.
# oral cavity = experiment: DIPA-1-9 sprayed into the mouth with aerosol sprayer
# [2] = system: eyelids of patients with dry eye disorder; experiment: Application to eyelids of patients with dry eye disorder; type: in vivo, human
# [3] = biological target: TRPA1 channels (human TRPA1 gene expressed in CHO cells) (Homo sapiens (Human), UniProt O75762); experiment: Selectivity on TRPA1 channels; type: cell-based; details: positive control mustard oil
# Sequence of TRPA1 channels (human TRPA1 gene expressed in CHO cells) (O75762 whole entry): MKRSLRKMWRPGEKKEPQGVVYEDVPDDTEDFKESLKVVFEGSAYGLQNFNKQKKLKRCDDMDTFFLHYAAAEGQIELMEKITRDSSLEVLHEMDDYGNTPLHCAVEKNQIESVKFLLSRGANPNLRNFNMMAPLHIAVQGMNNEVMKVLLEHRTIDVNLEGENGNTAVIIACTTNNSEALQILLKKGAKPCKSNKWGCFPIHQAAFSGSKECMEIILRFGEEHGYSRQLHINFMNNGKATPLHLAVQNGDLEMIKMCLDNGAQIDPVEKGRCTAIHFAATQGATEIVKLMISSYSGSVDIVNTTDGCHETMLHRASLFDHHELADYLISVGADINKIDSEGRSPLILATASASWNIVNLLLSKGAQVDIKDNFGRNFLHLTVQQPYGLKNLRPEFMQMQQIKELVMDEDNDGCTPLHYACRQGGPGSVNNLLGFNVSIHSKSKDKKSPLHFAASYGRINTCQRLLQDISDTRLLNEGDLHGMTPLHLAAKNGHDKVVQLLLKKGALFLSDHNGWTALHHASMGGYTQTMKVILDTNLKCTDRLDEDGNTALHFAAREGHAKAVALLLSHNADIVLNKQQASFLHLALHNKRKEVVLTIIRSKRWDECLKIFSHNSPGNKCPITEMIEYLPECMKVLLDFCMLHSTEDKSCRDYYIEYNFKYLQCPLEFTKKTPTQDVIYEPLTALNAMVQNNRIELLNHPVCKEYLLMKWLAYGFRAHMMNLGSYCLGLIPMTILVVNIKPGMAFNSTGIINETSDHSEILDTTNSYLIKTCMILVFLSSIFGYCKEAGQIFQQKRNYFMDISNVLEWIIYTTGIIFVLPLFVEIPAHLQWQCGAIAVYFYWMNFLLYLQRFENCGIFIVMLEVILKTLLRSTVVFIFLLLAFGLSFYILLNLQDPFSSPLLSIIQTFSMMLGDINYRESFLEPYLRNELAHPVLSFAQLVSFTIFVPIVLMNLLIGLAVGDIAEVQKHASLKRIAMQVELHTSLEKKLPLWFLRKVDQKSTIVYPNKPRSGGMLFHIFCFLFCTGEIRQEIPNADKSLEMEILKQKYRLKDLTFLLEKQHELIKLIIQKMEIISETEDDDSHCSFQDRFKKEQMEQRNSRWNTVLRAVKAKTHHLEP
# Description: (§1) In a third set, the selectivity of the test compounds on TRPM8, TRPV1 channels (human TRPV1 gene expressed in HEK293 cells) and TRPA1 channels (human TRPA1 gene expressed in CHO cells) were examined.
# (§2) The selectivity of DIPA-1-9 on TRP channel receptors, TRPM8, TRPA1 and TRPV1 is shown in FIG. 3 of Yang et. al. A novel TRPM8 agonist relieves dry eye discomfort. BMC Ophthalmology ([…]) 17: 101, and incorporated herein by reference. The applicant is a co-author of this publication.
# oropharynx and esophagus = experiment: Sensory events and cold discomfort of compounds on throat, chest and body; details: for taste: oral cavity / tongue
# Description: The terms “icy cold” is used to describe this adverse event in the throat.
# Most likely, the compound rapidly distributed and activated cold sensations in the eosophageal lining.
# [4] = system: upper aerodigestive tract discomfort; experiment: Case studies of DIPA-1-9 syrup in volunteers with upper aerodigestive tract discomfort; type: in vivo, human
# Description: The rationale and data set for selecting DIPA-1-9 in syrup as a treatment agent for upper aerodigestive discomfort have been described. […] The coolness spreads to the rest of throat and intensifies, as if a spoonful of rich ice cream had been swallowed. […] The cooling sensation can be used to facilitate mucus expectoration from the airways. Also relieved is the sense of suffocation when lying down to sleep in a subject that has dyspnea.
# [5] = biological target: TRPV1 channels (human TRPV1 gene expressed in HEK293 cells) (Homo sapiens (Human), UniProt Q8NER1); experiment: Selectivity on TRPV1 channels; type: cell-based; details: positive control capsaicin
# Sequence of TRPV1 channels (human TRPV1 gene expressed in HEK293 cells) (Q8NER1 whole entry): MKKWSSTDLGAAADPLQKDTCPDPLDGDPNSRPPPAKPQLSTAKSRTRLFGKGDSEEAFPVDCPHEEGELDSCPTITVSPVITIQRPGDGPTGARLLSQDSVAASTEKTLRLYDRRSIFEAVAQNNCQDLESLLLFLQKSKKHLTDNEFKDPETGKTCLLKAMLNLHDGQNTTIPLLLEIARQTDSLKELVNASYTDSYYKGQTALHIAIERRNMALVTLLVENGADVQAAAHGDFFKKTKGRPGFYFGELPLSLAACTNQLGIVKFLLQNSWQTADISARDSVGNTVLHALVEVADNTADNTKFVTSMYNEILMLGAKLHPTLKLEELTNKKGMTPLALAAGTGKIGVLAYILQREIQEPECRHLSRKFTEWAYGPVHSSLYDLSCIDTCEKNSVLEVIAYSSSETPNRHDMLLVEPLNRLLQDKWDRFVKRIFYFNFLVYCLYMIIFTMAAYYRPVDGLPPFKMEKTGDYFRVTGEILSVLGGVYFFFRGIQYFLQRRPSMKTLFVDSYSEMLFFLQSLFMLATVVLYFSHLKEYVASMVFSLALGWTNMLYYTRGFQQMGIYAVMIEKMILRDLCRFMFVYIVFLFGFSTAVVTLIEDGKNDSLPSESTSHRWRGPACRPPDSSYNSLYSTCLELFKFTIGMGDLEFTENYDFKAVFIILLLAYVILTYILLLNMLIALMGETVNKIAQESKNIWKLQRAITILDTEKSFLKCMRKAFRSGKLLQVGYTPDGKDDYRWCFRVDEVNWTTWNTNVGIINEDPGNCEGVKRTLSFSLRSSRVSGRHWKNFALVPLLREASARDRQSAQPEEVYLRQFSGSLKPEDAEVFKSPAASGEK
# Description: as §1, §2
# Oral Cavity and Pharynx [6] = experiment: Sensory qualities of compounds in syrup applied to base of tongue of volunteers; type: in vivo, human
# Method: The DIPA compounds was 5 mg/mL in cherry-flavored syrup in a volume of 0.8 mL per dose. The sensory effect were recorded every 5 min for 1 hr.
# Tests were on four volunteers, with 3 to 5 trials per substance. Compounds were prepared in cherry-flavored syrup at 5 mg/mL and administered ˜0.8 mL per dose with a 2 mL plastic vial to the base of the tongue. The subjects asked to rate the sensations for cooling intensity, cold discomfort and adverse taste.
# The concentration of the DIPA compounds was 5 mg/mL in cherry-flavored syrup administered in a volume of 0.8 mL per dose. The sensory effect were recorded every 5 min for 1 hr.
# rat skin = experiment: Skin irritation tests on rat skin; type: in vivo; design: key to Redness after 20 μL applied topically to skin (scale of 0 to +++): scale of 0 to +++; scale of 0 to +++; scale of 0 to +++; scale of 0 to +++
# anesthetized rat [7] = experiment: In vivo transdermal activity: shaking after topical application to abdominal skin of anesthetized rat; details: pure compound 20 μL on abdominal skin, counted 40 min
# Method: Shaking frequency was counted for 40 min after topical application.
# The importance of water solubility for permeation was further illustrated in studies on the abdominal skin of anesthetized rat. […] The pharmacokinetic determinants of bioactivity are precise. Thus, for the avoidance of cold discomfort, DIPA-1-9 has to reach the receptors in the stratum basale but not “over-stimulate”.
# [8] = Water solubility of 1-dialkylphosphorylalkanes; type: physicochemical
# Description: The DIPA compounds are colorless liquids with a density less than water. These structures differ from those described by Rowsell and Spring U.S. Pat. No. 4,070,496 because '496 structures have their “head” (phosphine oxide group) covered by larger, more lipophilic groups. […] The applicant synthesized these analogs (which are achiral, by contrast to the structures of '496 which are >95% chiral). […] This increased water-solublility is striking (Table 3). […] The DIPA analogs are now mobile in the extracellular fluids and permeate between cells to access nerve endings in the stratum basale.
# anesthetized rat [9] = experiment: Blood pressure and heart rate after subcutaneous injection in anesthetized rat; type: in vivo; details: injected subcutaneously
# [10] = system: capsaicin induced coughing; experiment: Capsaicin induced coughing in an animal model; details: in vivo
# [11] = system: respiratory syncytial virus (RSV) induced cough; experiment: Mouse cough model of respiratory syncytial virus infection; type: in vivo; details: 0.5 mg in 25 μL intranasally per mouse, 10 min before count
# [12] = 10 subjects with cough, sprayer 5 mg/mL cherry syrup, 1 week
# [13] = 5 mg/mL in cherry-flavored syrup, ~0.8 mL
smiles,measurement,setting,value
"CCCCCCCCCP(=O)(C(C)C)C(C)C [DIPA-1-9, 1-Di(isopropyl)-phosphinoyl-nonane]",pain or discomfort at increased concentration,Oral Cavity and Pharynx [1],did not produce icy cold or pain
same,Relative Potency to L-menthol,cloned hTRPM8 channel,4.0
same,taste,oral cavity; 10 mg/mL spray,slight taste of bitterness
same,persistence of sensation of cooling,"oral cavity; 10 mg/mL spray, contents spat out",≥ 1 h
same,cooling of oral cavity,"oral cavity; 10 mg/mL, 0.07 mL per activation, 3 activations",robust cooling of the oral cavity
same,irritation of eyelids,[2],not to be irritating
same,activity on TRPA1 (selectivity),[3],selective for TRPM8 and not TRPVI and TRPA1; also recorded: not on TRPV1 or TRPA1 receptors
same,icy cold / pain in throat,oropharynx and esophagus; DIPA-1-9 up to 12 mg per unit,not seen; also recorded: did not produce stinging
same,taste,oropharynx and esophagus,did not have significant adverse taste
same,taste,oropharynx and esophagus; listed as DIPA1-9,does not have a strong metallic taste
same,discomfort of satiety,"[4]; 8 mg/mL in simple syrup, three over-weight individuals",instantly relieved
same,chronic cough outcome (cough variant asthma cases),"[4]; 8 mg/mL in syrup, 1 mL vials as needed",the coughing problem had disappeared; also recorded: the cough was gone
same,subjects reporting not effective,[4]; [12],3
same,subjects reporting partially effective,[4]; [12],4
same,subjects reporting very effective,[4]; [12],3
same,residual antinociceptive effect duration,[4]; application to the throat,3 h
same,time to decrease in cough frequency,"[4]; person, 8 mg/mL in cherry-flavored syrup",≤ 3 days
same,activity on TRPV1 (selectivity),[5],selective for TRPM8 and not TRPVI and TRPA1; also recorded: not on TRPV1 or TRPA1 receptors
same,Adverse Taste,Oral Cavity and Pharynx [6]; [13],0
same,Discomfort,Oral Cavity and Pharynx [6]; [13],0
same,Sensation,Oral Cavity and Pharynx [6]; [13],cool
same,persistence of general sense of refreshment in the throat,"Oral Cavity and Pharynx [6]; human, in vivo",≥ 3 h
same,inflammatory response,"rat skin; pure compound, 20 μL, abdominal skin of anesthetized rat",did not cause significant inflammatory response
same,Redness after 20 μL applied topically to skin (scale of 0 to +++),"rat skin; rat skin, 20 μL",0
same,irritation of shaved rat skin,rat skin; up to 20 mg/mL,not to be irritating
same,shaking after topical application,anesthetized rat [7],not active
same,water solubility relative to prior art / di-sec-butyl or mixed isopropyl-sec-butyl analogs,[8],10 ×
same,solubility,[8]; water,> 300 mg/mL
same,effect on blood pressure or heart rate,anesthetized rat [9],did not affect blood pressure or heart rate
same,capsaicin induced coughing,[10],inhibited capsaicin induced coughing
same,cough frequency,[11],significantly inhibited cough frequency
